# Patent publication US20250154193A1, “STEROID COMPOUND, AND PREPARATION METHOD THEREFOR AND APPLICATION THEREOF” (CHOLESGEN (SHANGHAI) CO., LTD., priority 2022, published 2025)
# Columns and labels:
# liver organoids [1] = test: Real-time quantitative PCR of lipogenesis- and fibrosis-related genes in fatty liver organoids; format: cell-based, mice; settings: mouse fatty liver organoids, 1 and 3 μM, 72 hours, qPCR
# From the text: Liver samples or liver organoid samples were homogenized in TRI Reagent (T9424, Sigma), and total RNA was extracted according to the manufacturer's instructions. Equal amounts of RNA template were used to synthesize cDNA with oligo dT primers and MLV reverse transcriptase (Promega). Quantitative data for genes were collected using the Bio-Rad CFX96 real-time PCR system, and the relative amount of gene mRNA was quantified using the comparative CT method.
# (§1) C57BL/6N mice were fed with fatty liver-inducing diet (TrophicDiet, TP2630052A, containing 10.2% kcal protein, 37.3% kcal carbohydrate, and 52.6% kcal fat) and fructose-containing drinking water (23.1 g of fructose and 18.9 g of dextrose were dissolved in 1 L of water, then filtered and sterilized) for a total of 16 weeks starting at 12 weeks of age to generate a fatty liver model. To generate fatty liver organoids, liver tissues from mice with fatty liver were minced and digested in digestion buffer at 37° C. for 30 to 60 minutes. The digestion buffer included DMEM/F-12 (Cytiva, SH30023.01), 2.5 mg/mL collagenase D (Roche, COLLD-RO), and 0.1 mg/mL DNaseI (Sigma-Aldrich, DN25). […]
# To distinguish whether the inhibitory effect of 25-hydroxylanosterol is directly based on its effect on the liver or a systemic effect, we utilized 3D liver organoids as an in vitro model for the study of fatty liver to analyze the effect of 25-hydroxylanosterol on lipogenesis and fibrosis marker expression in liver organoids. […] RNA from the organoids was collected and analyzed for the differential expression of lipogenesis-related genes (Hmgcs, Hmgcr, SCD1, and FASN) and fibrosis markers (αSMA and Colla1) using fluorescent real-time quantitative PCR.
# (§2) In FIGS. 35 and 36, data are represented as mean±standard deviation. P values were calculated using one-way ANOVA; ns indicates no statistical difference; * indicates P<0.05; ** indicates P<0.01; *** indicates P<0.001. In FIGS. 47 and 53, quantitative analysis was performed using ImageJ software. […] P values were calculated using one-way ANOVA; * indicates P<0.05; ** indicates P<0.01; *** indicates P<0.001.
# liver organoids [2] = test: Nile Red and αSMA immunofluorescence staining of fatty liver organoids; format: cell-based, mice; settings: mouse fatty liver organoids, 1 and 3 μM, 72 hours
# Procedure: as §1, with “DN25). Isolated single hepatocytes were filtered through a 70 μm filter membrane and washed once. Cells were collected by centrifugation, and resuspended in a mixture of culture medium and basement membrane extract (BME) (R&D Systems, 3533-010-02) at a ratio of 1:3.” for “DN25).”
# as §2
structure (smiles),measurement,setting,value
"C[C@H](CCCC(C)(C)O)[C@H]1CC[C@@]2(C)C3=C(CC[C@]12C)[C@@]1(C)CC[C@H](O)C(C)(C)[C@@H]1CC3 [compound 68, (1R,3aR,5aR,7S,9aS,11aR)-1-[(2R)-6-hydroxy-6-methylheptan-2-yl]-3a,6,6,9a,11a-pentamethyl-2,3,3a,4,5,5a,6,7,8,9,9a,10,11,11a-tetradecahydro-1H-cyclopenta[1,2-a]phenanthren-7-ol]",expression levels of fibrosis-related genes (Col1a1 and αSMA),liver organoids [1],significantly inhibited
same,"expression levels of lipogenesis-related genes (Hmgcs, Hmgcr, SCD1, and FASN)",liver organoids [1],significantly inhibited
same,expression of fibrosis marker protein αSMA (immunofluorescence staining),liver organoids [2],decreasing
same,lipid accumulation in organoids (Nile Red staining),liver organoids [2],reduced
